Source: patent US10954228B2 (NATIONAL INSTITUTES OF HEALTH, UNITED STATES DEPARTMENT OF …, priority 2016, dated 2021)
Values belong to the compound of their own block, whether it stands above or below them.

Tests used:
Human LDHA = Human LDHA (Homo sapiens (Human), UniProt P00338); test: human LDHA primary biochemical assay; conditions: biochemical LDHA inhibitory activity, assay of Example 1; activity level classes defined in nM
Method in brief: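 Human LDHA at 2 nM with 0.06 mM NADH and 0.2 mM sodium pyruvate in 200 mM Tris HCl pH 7.4, 100 μM EDTA, 0.01% TWEEN-20 (final). NADH consumption coupled to resazurin/diaphorase (0.037 mM; 0.133 mg/mL); inhibition read by fluorescence.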

MiaPaCa2 cells = test: cell-based HT lactate assay by colorimetric/fluorometric detection (cellular inhibition of lactate production); conditions: Homo sapiens, MIA PaCa-2, assay of Example 6
Description: This example describes a cell-based metabolite assay by colorimetric/fluorometric detection employed in the characterization of a compound of formula (I) in an embodiment of the invention.
Cell-based HT Lactate assay is a miniaturized Biovision Lactate Colorimetric/Fluorometric Assay Kit (Cat #K607-100). The assay is roughly a 3.5 hour assay run in a 1536 plate format. Cell number optimization should be run for each cell line to achieve an optimal number in which lactate production equals roughly 90% of the standard curve range. Cell number per well optimization has been performed with the following cell lines: MiaPaCa2—500 cells/well, SNU398—500 cells/well, and P493—500 cells/well.

Structure (SMILES): CC1CC=C(c2cc(-c3nn(-c4nc(C(=O)O)cs4)c(CC4CC4)c3Cc3ccc(S(N)(=O)=O)c(F)c3)ccc2F)CC1 (stereo not drawn) [Compound 101, 2-(5-(cyclopropylmethyl)-3-(6-fluoro-4′-methyl-2′,3′,4′,5′-tetrahydro-[1,1′-biphenyl]-3-yl)-4-(3-fluoro-4-sulfamoylbenzyl)-1H-pyrazol-1-yl)thiazole-4-carboxylic acid]
IC50 (Human LDHA): < 100 nM
IC50 (MiaPaCa2 cells): < 1 µM

Structure (SMILES): NS(=O)(=O)c1ccc(Cc2c(-c3ccc(F)c(C4=CCC(C(F)(F)F)CC4)c3)nn(-c3nc(C(=O)O)cs3)c2CC2CC2)cc1F (stereo not drawn) [Compound 102, 2-(5-(cyclopropylmethyl)-3-(6-fluoro-4′-(trifluoromethyl)-2′,3′,4′,5′-tetrahydro-[1,1′-biphenyl]-3-yl)-4-(3-fluoro-4-sulfamoylbenzyl)-1H-pyrazol-1-yl)thiazole-4-carboxylic acid]
IC50 (Human LDHA): < 100 nM
IC50 (MiaPaCa2 cells): < 1 µM

Structure (SMILES): CC1CCCC=C1c1cc(-c2nn(-c3nc(C(=O)O)cs3)c(CC3CC3)c2Cc2ccc(S(N)(=O)=O)c(F)c2)ccc1F (stereo not drawn) [Compound 103, 2-(5-(cyclopropylmethyl)-3-(6-fluoro-2′-methyl-2′,3′,4′,5′-tetrahydro-[1,1′-biphenyl]-3-yl)-4-(3-fluoro-4-sulfamoylbenzyl)-1H-pyrazol-1-yl)thiazole-4-carboxylic acid]
IC50 (Human LDHA): < 100 nM
IC50 (MiaPaCa2 cells): < 1 µM

Structure (SMILES): COC1CC=C(c2cc(-c3nn(-c4nc(C(=O)O)cs4)c(CC4CC4)c3Cc3ccc(S(N)(=O)=O)c(F)c3)ccc2F)CC1 (stereo not drawn) [Compound 104, 2-(5-(cyclopropylmethyl)-3-(6-fluoro-4′-methoxy-2′,3′,4′,5′-tetrahydro-[1,1′-biphenyl]-3-yl)-4-(3-fluoro-4-sulfamoylbenzyl)-1H-pyrazol-1-yl) thiazole-4-carboxylic acid]
IC50 (Human LDHA): < 100 nM
IC50 (MiaPaCa2 cells): < 1 µM

Structure (SMILES): NS(=O)(=O)c1ccc(Cc2c(-c3ccc(F)c(C4=Cc5ccccc5C4)c3)nn(-c3nc(C(=O)O)cs3)c2CC2CC2)cc1F [Compound 105, 2-(5-(cyclopropylmethyl)-3-(4-fluoro-3-(1H-inden-2-yl)phenyl)-4-(3-fluoro-4-sulfamoylbenzyl)-1H-pyrazol-1-yl)thiazole-4-carboxylic acid]
IC50 (Human LDHA): < 100 nM
IC50 (MiaPaCa2 cells): < 1 µM

Structure (SMILES): CC1(C)CC=C(c2cc(-c3nn(-c4nc(C(=O)O)cs4)c(CC4CC4)c3Cc3ccc(S(N)(=O)=O)c(F)c3)ccc2F)CC1 [Compound 106, 2-(5-(cyclopropylmethyl)-3-(6-fluoro-4′,4′-dimethyl-2′,3′,4′,5′-tetrahydro-[1,1′-biphenyl]-3-yl)-4-(3-fluoro-4-sulfamoylbenzyl)-1H-pyrazol-1-yl) thiazole-4-carboxylic acid]
IC50 (Human LDHA): < 100 nM
IC50 (MiaPaCa2 cells): < 1 µM

Structure (SMILES): NS(=O)(=O)c1ccc(Cc2c(-c3ccc(F)c(C4=CCC(F)(F)CC4)c3)nn(-c3nc(C(=O)O)cs3)c2CC2CC2)cc1F [Compound 107, 2-(5-(cyclopropylmethyl)-4-(3-fluoro-4-sulfamoylbenzyl)-3-(4′,4′,6-trifluoro-2′,3′,4′,5′-tetrahydro-[1,1′-biphenyl]-3-yl)-1H-pyrazol-1-yl)thiazole-4-carboxylic acid]
IC50 (Human LDHA): < 100 nM
IC50 (MiaPaCa2 cells): < 1 µM

Structure (SMILES): NS(=O)(=O)c1ccc(Cc2c(-c3ccc(F)c(C4=CCC5(CC4)CC5)c3)nn(-c3nc(C(=O)O)cs3)c2CC2CC2)cc1F [Compound 108, 2-(5-(cyclopropylmethyl)-3-(4-fluoro-3-(spiro[2.5]oct-5-en-6-yl)phenyl)-4-(3-fluoro-4-sulfamoylbenzyl)-1H-pyrazol-1-yl)thiazole-4-carboxylic acid]
IC50 (Human LDHA): < 100 nM
IC50 (MiaPaCa2 cells): < 1 µM

Structure (SMILES): CCC#Cc1cc(-c2nn(-c3nc(C(=O)O)cs3)c(CC3CC3)c2Cc2ccc([S+](N)(=O)[O-])c(F)c2)ccc1F [Compound 109, 2-(3-(3-(but-1-yn-1-yl)-4-fluorophenyl)-5-(cyclopropylmethyl)-4-(3-fluoro-4-sulfamoylbenzyl)-1H-pyrazol-1-yl)thiazole-4-carboxylic acid]
IC50 (MiaPaCa2 cells): < 1 µM

Structure (SMILES): Cc1ncc(C#Cc2cc(-c3nn(-c4nc(C(=O)O)cs4)c(CC4CC4)c3Cc3ccc(S(N)(=O)=O)c(F)c3)ccc2F)s1 [Compound 111, 2-(5-(cyclopropylmethyl)-3-(4-fluoro-3-((2-methylthiazol-5-yl)ethynyl)phenyl)-4-(3-fluoro-4-sulfamoylbenzyl)-1H-pyrazol-1-yl)thiazole-4-carboxylic acid]
IC50 (Human LDHA): < 100 nM
IC50 (MiaPaCa2 cells): < 1 µM

Structure (SMILES): Cc1ccc(C#Cc2cccc(-c3nn(-c4nc(C(=O)O)cs4)c(CC4CC4)c3Cc3ccc(S(N)(=O)=O)c(F)c3)c2)s1 [Compound 112, 2-(5-(cyclopropylmethyl)-4-(3-fluoro-4-sulfamoylbenzyl)-3-(3-((5-methylthiophen-2-yl)ethynyl)phenyl)-1H-pyrazol-1-yl)thiazole-4-carboxylic acid]
IC50 (Human LDHA): < 100 nM
IC50 (MiaPaCa2 cells): < 1 µM

Structure (SMILES): Cc1cnc(C#Cc2cc(-c3nn(-c4nc(C(=O)O)cs4)c(CC4CC4)c3Cc3ccc(S(N)(=O)=O)c(F)c3)ccc2F)s1 [Compound 114, 2-(5-(cyclopropylmethyl)-3-(4-fluoro-3-((5-methylthiazol-2-yl)ethynyl)phenyl)-4-(3-fluoro-4-sulfamoylbenzyl)-1H-pyrazol-1-yl) thiazole-4-carboxylic acid]
IC50 (Human LDHA): < 100 nM
IC50 (MiaPaCa2 cells): < 1 µM

Structure (SMILES): CC(C)c1ccc(-c2cc(-c3nn(-c4nc(C(=O)O)cs4)c(CC4CC4)c3Cc3ccc(S(N)(=O)=O)c(F)c3)ccc2F)cc1 [Compound 142, 2-(5-(cyclopropylmethyl)-3-(6-fluoro-4′-isopropyl-[1,1′-biphenyl]-3-yl)-4-(3-fluoro-4-sulfamoylbenzyl)-1H-pyrazol-1-yl)thiazole-4-carboxylic acid]
IC50 (MiaPaCa2 cells): < 1 µM

Structure (SMILES): Cc1ccc(C#Cc2cc(-c3nn(-c4nc(C(=O)O)cs4)c(CC4CC4)c3Cc3ccc(S(N)(=O)=O)c(F)c3)ccc2F)s1 [Compound 249, 2-(5-(cyclopropylmethyl)-3-(4-fluoro-3-((5-methylthiophen-2-yl)ethynyl)phenyl)-4-(3-fluoro-4-sulfamoylbenzyl)-1H-pyrazol-1-yl)thiazole-4-carboxylic acid]
IC50 (Human LDHA): < 100 nM

Next, values leading:

IC50 (Human LDHA): 100 to 1000 nM
IC50 (MiaPaCa2 cells): < 1 µM
Structure (SMILES): CC(C)(C)c1ccc(C#Cc2cc(-c3nn(-c4nc(C(=O)O)cs4)c(CC4CC4)c3Cc3ccc(S(N)(=O)=O)c(F)c3)ccc2F)s1 [Compound 110, 2-(3-(3-((5-(tert-butyl)thiophen-2-yl)ethynyl)-4-fluorophenyl)-5-(cyclopropylmethyl)-4-(3-fluoro-4-sulfamoylbenzyl)-1H-pyrazol-1-yl)thiazole-4-carboxylic acid]

IC50 (Human LDHA): < 100 nM
IC50 (MiaPaCa2 cells): < 1 µM
Structure (SMILES): Cc1ccc(C#Cc2cc(-c3nn(-c4nc(C(=O)O)cs4)c(CCC4CC4)c3Cc3ccc(S(N)(=O)=O)c(F)c3)ccc2F)s1 [Compound 113, 2-(5-(2-cyclopropylethyl)-3-(4-fluoro-3-((5-methylthiophen-2-yl)ethynyl)phenyl)-4-(3-fluoro-4-sulfamoylbenzyl)-1H-pyrazol-1-yl)thiazole-4-carboxylic acid]

IC50 (Human LDHA): < 100 nM
IC50 (MiaPaCa2 cells): < 1 µM
Structure (SMILES): Cc1ccc(C#Cc2cccc(-c3nn(-c4nc(C(=O)O)cs4)c(CCC4CC4)c3Cc3ccc(S(N)(=O)=O)c(F)c3)c2)s1 [Compound 115, 2-(5-(2-cyclopropylethyl)-4-(3-fluoro-4-sulfamoylbenzyl)-3-(3-((5-methylthiophen-2-yl)ethynyl)phenyl)-1H-pyrazol-1-yl)thiazole-4-carboxylic acid]

IC50 (Human LDHA): 100 to 1000 nM
Structure (SMILES): NS(=O)(=O)c1ccc(Cc2c(-c3cccc(C#Cc4ccc(C5CC5)s4)c3)nn(-c3nc(C(=O)O)cs3)c2CCC2CC2)cc1F [Compound 244, 2-(5-(2-cyclopropylethyl)-3-(3-((5-cyclopropylthiophen-2-yl)ethynyl)phenyl)-4-(3-fluoro-4-sulfamoylbenzyl)-1H-pyrazol-1-yl)thiazole-4-carboxylic acid]

IC50 (Human LDHA): 100 to 1000 nM
Structure (SMILES): NS(=O)(=O)c1ccc(Cc2c(-c3cccc(C#Cc4ccc(C5CCC5)s4)c3)nn(-c3nc(C(=O)O)cs3)c2CC2CC2)cc1F [Compound 245, 2-(3-(3-((5-cyclobutylthiophen-2-yl)ethynyl)phenyl)-5-(cyclopropylmethyl)-4-(3-fluoro-4-sulfamoylbenzyl)-1H-pyrazol-1-yl)thiazole-4-carboxylic acid]

IC50 (Human LDHA): 100 to 1000 nM
Structure (SMILES): NS(=O)(=O)c1ccc(Cc2c(-c3cccc(C#Cc4ccc(C5CCC5)s4)c3)nn(-c3nc(C(=O)O)cs3)c2CCC2CC2)cc1F [Compound 246, 2-(3-(3-((5-cyclobutylthiophen-2-yl)ethynyl)phenyl)-5-(2-cyclopropylethyl)-4-(3-fluoro-4-sulfamoylbenzyl)-1H-pyrazol-1-yl)thiazole-4-carboxylic acid]

IC50 (Human LDHA): < 100 nM
Structure (SMILES): Cc1ccc(C#Cc2cccc(-c3nn(-c4nc(C(=O)O)co4)c(CC4CC4)c3Cc3ccc(S(N)(=O)=O)c(F)c3)c2)s1 [Compound 247, 2-(5-(cyclopropylmethyl)-4-(3-fluoro-4-sulfamoylbenzyl)-3-(3-((5-methylthiophen-2-yl)ethynyl)phenyl)-1H-pyrazol-1-yl)oxazole-4-carboxylic acid]

IC50 (Human LDHA): 100 to 1000 nM
Structure (SMILES): Cc1ccc(C#Cc2cccc(-c3nn(-c4nc(C(=O)O)cs4)c(CCCC4CC4)c3Cc3ccc(S(N)(=O)=O)c(F)c3)c2)s1 [Compound 248, 2-(5-(3-cyclopropylpropyl)-4-(3-fluoro-4-sulfamoylbenzyl)-3-(3-((5-methylthiophen-2-yl)ethynyl)phenyl)-1H-pyrazol-1-yl)thiazole-4-carboxylic acid]
